Data on 16 compounds can be found in patent US10752587B2, “Homobispiperidinyl derivatives as liver X receptor beta agonists, compositions and their use” (Merck Sharp & Dohme Corp., priority 2015, dated 2020).

For assay [1], the target named is T1, glutathione-S-transferase (GST) tagged LXRbeta LBD (ligand binding domain) (Homo sapiens, UniProt P55055).
T1 construct: purchased Invitrogen pv4658.pps
T1 sequence (P55055 222-460 limits assumed): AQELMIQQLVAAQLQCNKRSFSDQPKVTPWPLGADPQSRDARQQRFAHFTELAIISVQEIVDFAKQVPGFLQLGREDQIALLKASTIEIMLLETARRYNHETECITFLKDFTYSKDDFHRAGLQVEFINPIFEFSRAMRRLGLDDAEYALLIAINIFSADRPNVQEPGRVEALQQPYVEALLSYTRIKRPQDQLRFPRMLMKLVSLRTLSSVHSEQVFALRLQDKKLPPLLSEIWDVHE
Put plainly: LanthaScreen TR-FRET Liver X Receptor Coactivator Assay, co-activator recruitment to LXRbeta LBD. Type of assay: biochemical. The procedure, abridged: (§1)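 TR-FRET coactivator recruitment; compound + LBD, then fluorescein-coactivator peptide/Tb-anti-GST Ab mix; RT incubation; IP and Emax vs T0901317.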
Background: TR-FRET usually uses a lanthanide donor and a delayed reading to cut background.

For assay [2], the target named is T2, glutathione-S-transferase (GST) tagged LXRalpha LBD (ligand binding domain) (Homo sapiens, UniProt Q13133).
T2 construct: purchased Invitrogen pv4655
T2 sequence (Q13133 209-447 limits assumed): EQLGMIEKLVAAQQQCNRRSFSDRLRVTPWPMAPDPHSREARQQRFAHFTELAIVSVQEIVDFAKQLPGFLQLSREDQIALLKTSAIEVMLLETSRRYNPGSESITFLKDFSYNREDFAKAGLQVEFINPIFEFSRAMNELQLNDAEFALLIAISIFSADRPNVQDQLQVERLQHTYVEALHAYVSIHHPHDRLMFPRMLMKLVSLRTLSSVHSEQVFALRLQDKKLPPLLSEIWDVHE
Put plainly: LanthaScreen TR-FRET Liver X Receptor Coactivator Assay, co-activator recruitment to LXRalpha LBD. Type of assay: biochemical. The note with it: for LXR alpha IP (nM) / EC50: potency (Inflection Point, IP), co-activator recruitment to LXRalpha LBD, in relation to T0901317; for EC50: read-out: LXR alpha IP. The method, boiled down:
as §1

[3] abbreviates: efficacy at max dose, in relation to reference dual agonist T0901317, read-out: LXR beta Activity @ max dose (%).
Setting [4] is: potency (Inflection Point, IP), co-activator recruitment to LXRbeta LBD, in relation to T0901317, read-out: LXR beta IP.
[5] abbreviates: efficacy at max dose, in relation to reference dual agonist T0901317, read-out: LXR alpha Activity @ max dose (%).

SMILES strings stand for the structures. Where two headings read alike, the source gives them in different places.

In the case of `CC(C)c1cccc(C(O)(C(=O)N2CCC(CC3CCN(c4ccc(C(=O)N(C)C)c(Cl)n4)CC3)CC2)C(F)(F)F)c1` (stereo not drawn) [Example 7-84, 2-chloro-N,N-dimethyl-6-{4-[(1-{3,3,3-trifluoro-2-hydroxy-2-[3-(1-methylethyl)phenyl]propanoyl}piperidin-4-yl)methyl]piperidin-1-yl}pyridine-3-carboxamide], the Emax in assay [1] (setting [3]) is 54%; in assay [2] (setting [5]), 11%. Besides, the EC50 in assay [1] (setting [4]) was 13 nM. Moreover, in assay [2], the “LXR alpha IP (nM)” value is reported as “NO IP”.

With `CN(C)C(=O)c1ccc(N2CCC(CC3CCN(C(=O)C(O)(c4cccc5c4CCC5)C(F)(F)F)CC3)CC2)cc1Cl` (stereo not drawn) [Example 2-170, 2-chloro-4-[4-({1-[2-(2,3-dihydro-1H-inden-4-yl)-3,3,3-trifluoro-2-hydroxy-propanoyl]piperidin-4-yl}methyl)piperidin-1-yl]-N,N-dimethyl-benzamide], the Emax came out at 19% in assay [1] (setting [3]) and 0% in assay [2] (setting [5]). Besides, the EC50 in assay [1] (setting [4]) came to 27 nM. In addition, the “LXR alpha IP (nM)” value in assay [2] is recorded as “NO IP”.

On to `CS(=O)(=O)c1cccc(N2CCC(CC3CCN(C(=O)[C@](O)(c4ccccc4)C(F)(F)F)CC3)CC2)c1` [Example 2-74, (2R)-1,1,1-trifluoro-3-[4-({1-[3-(methylsulfonyl)phenyl]piperidin-4-yl}methyl)piperidin-1-yl]-3-oxo-2-phenylpropan-2-ol], for which the Emax in assay [1] (setting [3]) amounted to 87%; in assay [2] (setting [5]), 38%. The EC50 in assay [1] (setting [4]) stood at 39 nM; in assay [2] it was 444 nM.

For `O=C(c1ccc(N2CCC(CC3CCN(C(=O)[C@](O)(c4cc(Cl)cc(Cl)c4)C(F)(F)F)CC3)CC2)cc1Cl)N1CC[C@@H](O)C1` [Example 4-22, (3R)-1-({2-chloro-4-[4-({1-[(2R)-2-(3,5-dichloro-phenyl)-3,3,3-trifluoro-2-hydroxypropanoyl]piperidin-4-yl}methyl)piperidin-1-yl]phenyl}carbonyl) pyrrolidin-3-ol], the Emax was 38% in assay [1] (setting [3]) and 0% in assay [2] (setting [5]). For the same compound, the EC50 in assay [1] (setting [4]) is 35 nM. The “LXR alpha IP (nM)” value in assay [2] was “NO IP”.

For `O=C(c1ccc(N2CCC(CC3CCN(C(=O)[C@](O)(c4ccccc4)C(F)(F)F)CC3)CC2)cc1Cl)N1CC(F)(F)C1` [Example 4-8, (2R)-3-{4-[(1-{3-chloro-4-[(3,3-difluoroazetidin-1-yl)carbonyl]phenyl}piperidin-4-yl)methyl]piperidin-1-yl}-1,1,1-trifluoro-3-oxo-2-phenylpropan-2-ol], the Emax came to 93% in assay [1] (setting [3]) and 37% in assay [2] (setting [5]). Also, the EC50 in assay [1] (setting [4]) amounted to 172 nM; in assay [2], 984 nM.

Take `CNC(=O)c1ccc(N2CCC(CC3CCN(C(=O)C(O)(c4cccc(Cl)c4)C(F)(F)F)CC3)CC2)cc1Cl` (stereo not drawn) [Example 7-129, 2-chloro-4-[4-({1-[2-(3-chlorophenyl)-3,3,3-trifluoro-2-hydroxypropanoyl]piperidin-4-yl}methyl)piperidin-1-yl]-N-methylbenzamide]: the “LXR beta Activity @ max dose (%)” value in assay [1] (efficacy at max dose, in relation to reference dual agonist T0901317) is listed as 90%. Further, the EC50 in assay [1] (setting [4]) came out at 16 nM. Further, the “LXR alpha IP (nM)” value in assay [2] is reported as “NO IP”.

As to `CN(C)C(=O)c1ccc(N2CCC(CC3CCN(C(=O)[C@](O)(c4cccc(OC(F)F)c4)C(F)(F)F)CC3)CC2)nc1Cl` [Example 7-115, 2-chloro-6-{4-[(1-{(2R)-2-[3-(difluoromethoxy)phenyl]-3,3,3-trifluoro-2-hydroxypropanoyl}piperidin-4-yl)methyl]piperidin-1-yl}-N,N-dimethylpyridine-3-carboxamide], the Emax in assay [1] (setting [3]) is 60%; in assay [2] (setting [5]), 17%. In addition, the figures for the EC50 in assay [1] (setting [4]) and in assay [2] were 5 nM and 251 nM, respectively.

`COc1cccc([C@@](O)(C(=O)N2CCC(CC3CCN(c4ccc(C(=O)N(C)C)c(OC)n4)CC3)CC2)C(F)(F)F)c1` [Example 7-19, 2-methoxy-N,N-dimethyl-6-[4-({1-[(2R)-3,3,3-trifluoro-2-hydroxy-2-(3-methoxyphenyl)propanoyl]piperidin-4-yl}methyl)piperidin-1-yl]pyridine-3-carboxamide]: the results for the Emax in assay [1] (setting [3]) and in assay [2] (setting [5]) were 61% and 3%, respectively. In addition, the EC50 in assay [1] (setting [4]) stood at 7 nM. Further, in assay [2], the “LXR alpha IP (nM)” value was “NO IP”.

Turning to `CCOc1cccc([C@@](O)(C(=O)N2CCC(CC3CCN(c4ccc(C(=O)N(C)C)cc4)CC3)CC2)C(F)(F)F)c1` [Example 2-145, 4-[4-({1-[(2R)-2-(3-ethoxy-phenyl)-3,3,3-trifluoro-2-hydroxy-propanoyl]piperidin-4-yl}methyl)piperidin-1-yl]-N,N-dimethyl-benzamide], the Emax in assay [1] (setting [3]) worked out at 54%; in assay [2] (setting [5]), 4%. Further, in assay [1] (setting [4]), the EC50 came out at 73 nM. Besides, the “LXR alpha IP (nM)” value in assay [2] is “NO IP”.

As for `O=C(c1ccc(N2CCC(OC3CCN(C(=O)[C@](O)(c4ccccc4)C(F)(F)F)CC3)CC2)cc1Cl)N1CCC[C@H]1CO` [Example 4-7, (2R)-3-(4-{[1-(3-chloro-4-{[(2S)-2-(hydroxy-methyl)pyrrolidin-1-yl]carbonyl}phenyl)piperidin-4-yl]oxy}piperidin-1-yl)-1,1,1-trifluoro-3-oxo-2-phenylpropan-2-ol], the Emax in assay [1] (setting [3]) came out at 76%; in assay [2] (setting [5]), 50%. The values for the EC50 in assay [1] (setting [4]) and in assay [2] were 31 nM and 516 nM, respectively.

Take `CNC(=O)c1ccc(N2CCC(CC3CCN(C(=O)[C@](O)(c4cccc(OC)c4)C(F)(F)C(F)(F)F)CC3)CC2)cc1Cl` [Example 7-124, 2-chloro-N-methyl-4-[4-({1-[(2R)-3,3,4,4,4-pentafluoro-2-hydroxy-2-(3-methoxyphenyl)butanoyl]piperidin-4-yl}methyl)piperidin-1-yl]benzamide]: the Emax came out at 96% in assay [1] (setting [3]) and 36% in assay [2] (setting [5]). Besides, the EC50 in assay [1] (setting [4]) worked out at 28 nM; in assay [2] it was 482 nM.

Regarding `CC(C)Oc1cccc([C@@](O)(C(=O)N2CCC(C)(CC3CCN(c4ccc(C(=O)N(C)C)c(Cl)c4)CC3)CC2)C(F)(F)F)c1` [Example 2-55, 2-chloro-N,N-dimethyl-4-{4-[(4-methyl-1-{(2R)-3,3,3-trifluoro-2-hydroxy-2-[3-(1-methyl-ethoxy)phenyl]propanoyl}piperidin-4-yl)methyl]piperidin-1-yl}benzamide], the Emax in assay [1] (setting [3]) is 44%; in assay [2] (setting [5]), 0%. Moreover, in assay [1] (setting [4]), the EC50 worked out at 8 nM. The “LXR alpha IP (nM)” value in assay [2] is reported as “NO IP”.

As to `COc1cccc([C@@](O)(C(=O)N2CCC(C)(CC3CCN(c4ccc(C(=O)N(C)C)c(C)c4)CC3)CC2)C(F)(F)F)c1` [Example 2-80, N,N,2-trimethyl-4-[4-({4-methyl-1-[(2R)-3,3,3-trifluoro-2-hydroxy-2-(3-methoxyphenyl)propanoyl]piperidin-4-yl}methyl)piperidin-1-yl]benzamide], the figures for the Emax in assay [1] (setting [3]) and in assay [2] (setting [5]) were 19% and 0%, respectively. In assay [1] (setting [4]), the EC50 is 19 nM. Further, the “LXR alpha IP (nM)” value in assay [2] was “NO IP”.

On to `CN(C)C(=O)c1ccc(N2CCC(CC3CCN(C(=O)[C@](O)(c4ccccc4)C(F)(F)C(F)(F)F)CC3)CC2)cc1` [Example 2-140, N,N-dimethyl-4-[4-({1-[(2R)-3,3,4,4,4-pentafluoro-2-hydroxy-2-phenylbutanoyl]piperidin-4-yl}methyl)piperidin-1-yl]benzamide], for which the Emax in assay [1] (setting [3]) worked out at 118%; in assay [2] (setting [5]) it was 43%. The EC50 in assay [1] (setting [4]) was determined as 84 nM; in assay [2], 836 nM.

With `CCOc1cccc([C@@](O)(C(=O)N2CCC(CC3CCN(c4ccc(C(N)=O)c(Cl)c4)CC3)CC2)C(F)(F)F)c1` [Example 12-8, 2-chloro-4-[4-({1-[(2R)-2-(3-ethoxyphenyl)-3,3,3-trifluoro-2-hydroxypropanoyl]-piperidin-4-yl}methyl)-piperidin-1-yl]-benzamide], in assay [1] (co-activator recruitment to GST-LXRbeta LBD, TR-FRET, read-out: LXR beta IP (Inflection Point, potency)), the EC50 came to 4 nM. Moreover, the Emax in assay [1] (efficacy in relation to reference dual agonist T0901317, read-out: LXR beta Activity @ max dose) turned out to be 46%; in assay [2] (efficacy in relation to reference dual agonist T0901317, read-out: LXR alpha Activity @ max dose), 12%. Also, the “LXR alpha IP (Inflection Point, potency)” value in assay [2] (co-activator recruitment to GST-LXRalpha LBD, TR-FRET) is listed as “NO IP”.

With `CN(C)C(=O)c1ccc(N2CCC(CC3CCN(C(=O)C(O)(c4ccnc(C(F)(F)F)c4)C(F)(F)F)CC3)CC2)cc1Cl` (stereo not drawn) [Example 2-40, 2-chloro-N,N-dimethyl-4-{4-[(1-{3,3,3-trifluoro-2-hydroxy-2-[2-(trifluoromethyl)pyridin-4-yl]propanoyl}piperidin-4-yl)methyl]piperidin-1-yl}benzamide], the results for the Emax in assay [1] (setting [3]) and in assay [2] (setting [5]) were 34% and 9%, respectively. In addition, the EC50 in assay [1] (setting [4]) is 72 nM. Further, in assay [2], the “LXR alpha IP (nM)” value is listed as “NO IP”.
